Experiments:
[1] = system: BRCA1 mRNA expression in MDA-MB-231 cells; assay: qRT-PCR assay: inhibition of BRCA1 mRNA expression in MDA-MB-231 cells; type: cell-based; conditions: Homo sapiens, 24 h exposure, BRCA1 normalised to GAPDH, median, read-out: RTqPCR-MDA-MB-231, IC50 [mol/l], BRCA1 (median)
Description: 3. qRT-PCR Assay: BRCA1, ATR, MCL1 in MDA-MB-231, CAL-120
Tissue cultured human MDA-MB-231 human breast cancer cells were plated in 500 microL per well at 200,000 cells/well in a 24 well microtiter plate. After 24 h, the cells were exposed continuously for 24 h to test substances (substances were added with Tecan HP D300 Dispenser). RNA was prepared using Qiagen RNeasy MiniKit (#74106), RNA was quantified using a NanoDrop Equipment, and 600 nano grams of RNA was converted to cDNA using a SuperScript VILO kit (Thermofisher #11755050) followed by qPCR amplification. BRCA1 and ATR gene expression was measured by RT-qPCR and normalised to GAPDH housekeeping gene expression. qPCR primer sets have been purchased from Thermo Fisher Scientific/Applied Biosystems: BRCA1, #Hs 01556193; ATR. #Hs 00992123: GAPDH. #Hs 03929097.

[2] = system: MDA-MB-231-CDK12d-res; assay: Proliferation assay CDK12 degrader resistant MDA-MB-231; type: cell-based, human; conditions: for IC50: Homo sapiens, 96 h, CDK12 degrader resistant MDA-MB-231 cells, 4 days, median, read-out: Prolif-MDA MB-231-CDK12d-res, IC50 - [mol/] (median); for Ratio (Prolif-MDA MB-231-CDK12d-res IC50 / Prolif-MDA MB-231 IC50): resistant versus parental MDA-MB-231 cells
Excerpt: (§1) CDK12-degrader resistant cells were generated by propagation of CAL-120 human breast adenocarcinoma cells (DSMZ ACC-459) and MDA-MB-231 human breast cancer cells (ATCC HTB-26) in presence of increasing concentrations of the CDK12 degrader compound example 4 from WO 2021/116178. Initial concentrations of example 4 were 2.0E-08 M for CAL-120 cells and 4.6E-08 M for MDA-MB-231 cells, corresponding to ca. 2-fold the IC50 of inhibition of the cells in an proliferation assay. After the treated cells recovered and proliferated again the concentration of compound example 4 was increased to 3-fold IC50.
(§2) To determine the inhibitory effect of test compounds on proliferation of CAL-120-CDK12d-res, MDA-MB-231-CDK12d-res the cells were plated at a density of 4,000 cells/well in a 96-well multitier plate in 200 microL of their respective growth medium supplemented 10% fetal calf serum. After 24 hours, the cells of one plate (zero-point plate) were stained with crystal violet (see below), while the medium of the other plates was supplemented with the test substances in various concentrations (0 micromol/L, as well as in the range of 0.01-10 micromol/L; the final concentration of the solvent dimethyl sulfoxide was adjusted to 0.1%) using a Tecan HP D300 Digital Dispenser. The cells were incubated for 4 days in the presence of test substances. Cell proliferation was determined by staining the cells with crystal violet: the cells were fixed by adding 20 microL/measuring point of an 11% glutaric aldehyde solution for 15 minutes at room temperature. After three washing cycles of the fixed cells with water, the plates were dried at room temperature. The cells were stained by adding 100 microL/measuring point of a 0.1% crystal violet solution (pH 3.0). After three washing cycles of the stained cells with water, the plates were dried at room temperature. The dye was dissolved by adding 100 microL/measuring point of a 10% acetic acid solution. The extinction was determined by photometry at a wavelength of 595 nm. The change of cell number, in percent, was calculated by normalization of the measured values to the extinction values of the zero-point plate (=0%) and the extinction of the untreated (0 μM) cells (=100%). The IC50 values (inhibitory concentration at 50% of maximal effect) were determined by means of a 4 parameter fit.

[3] = system: CAL-120-CDK12d-res; assay: Proliferation assay CDK12 degrader resistant CAL-120; type: cell-based, human; conditions: for IC50: Homo sapiens, 96 h, CDK12 degrader resistant CAL-120 cells, 4 days, median, read-out: Prolif-CAL-120-CDK12d-res, IC50 - [mol/l] (median); for Ratio (Prolif-CAL-120-CDK12d-res IC50 / Prolif-CAL-120 IC50): resistant versus parental CAL-120 cells
Excerpt: as §1, §2

[4] = system: CYCLIN K; assay: CYCLIN K nuclear protein level: immunofluorescence/high content analysis in CAL-120 cells; type: cell-based, human; conditions: 24 h, nuclear CCNK staining intensity, median, read-out: CYCLIN K degradation IF, DC50 - [mol/l] (median)
Description: CAL-120 human breast cancer cells (DSMZ ACC 459) are seeded in 1536-well microtiter plates (800 cells per well) containing 50 nanoL of compounds in Dose-Response. Control wells received DMSO or Example 4. Plates are then incubated for 24 h at 37° C. in an humidified incubator and fixed with 4% PFA for 10 min. Then immunofluorescence (IF) against CYCLIN K (ThermoFisher Scientific CCNK Antibody #PA5-85020, rabbit, 1:200 dilution) is performed using standard IF protocols. Cells are then stained with Hoechst 33342 (Life Technologies, H-1399, 0.1 microg/ml) and imaged on an automated confocal microscopy system (e.g. Perkin Elmer Opera Phenix). Nuclear and cytoplasmic intensity as well as the nuclear/cytoplasmic intensity ratio is determined by automated image analysis using custom generated scripts (MetaXpress). Data is then transferred to Genedata Screener software, normalized to DMSO and control and DC50 values (degrading concentration to achieve 50% reduction of nuclear CCNK staining intensity relative to controls) are reported.

| Structure (SMILES) | IC50 [1] [µM] | IC50 [2] [µM] | Ratio (Prolif-MDA MB-231-CDK12d-res IC50 / Prolif-MDA MB-231 IC50) [2] | IC50 [3] [µM] | Ratio (Prolif-CAL-120-CDK12d-res IC50 / Prolif-CAL-120 IC50) [3] | DC50 [4] [µM] |
| --- | --- | --- | --- | --- | --- | --- |
| FC(F)(F)c1ccc(-c2nnc(CNc3nc(N4CCOCC4)nn4c(C(F)(F)F)cnc34)[nH]2)cn1 [Example 20, 2-(morpholin-4-yl)-7-(trifluoromethyl)-N-({5-[6-(trifluoromethyl)pyridin-3-yl]-4H-1,2,4-triazol-3-yl}methyl)imidazo[2,1-f][1,2,4]triazin-4-amine] | 0.0538 | 0.155 | 2.9 | 0.118 | 1.4 | > 1 |
| FC(F)(F)c1ccc(-c2cnc(CNc3nc(N4CCOCC4)nc4c(C(F)(F)F)cnn34)[nH]2)cn1 [Example 24, 2-(morpholin-4-yl)-8-(trifluoromethyl)-N-({5-[6-(trifluoromethyl)pyridin-3-yl]-1H-imidazol-2-yl}methyl)pyrazolo[1,5-a][1,3,5]triazin-4-amine] | 0.0295 | 0.0626 | 2.9 | 0.0407 | 1.3 | > 1 |

Reference: patent US20250066370A1, “BICYCLIC TRIAZINE DERIVATIVES FOR THE TREATMENT OF CANCER” (DEUTSCHES KREBSFORSCHUNGSZENTRUM, priority 2022, published 2025)
